Measurements taken from ChEMBL document CHEMBL4406823 (Eur J Med Chem, 2019).
The source made the active and inactive calls. No cut-off for these calls is given here.

What was measured:
MDA-MB-231 [1] = experiment: Inhibition of cell migration in human MDA-MB-231 cells at 5 nM incubated for 24 to 48 hrs by wound healing assay; type: functional, cell-based
E0771 [2] = experiment: Antitumour activity against mouse E0771 cells allografted in C57BL/6 mouse assessed as reduction in tumor burden at 5.0 mg/kg, ip administrated every other day by caliper method; type: functional, organism-based
SEM cells = experiment: Antiproliferative activity against human SEM cells assessed as inhibition of cell proliferation incubated for 72 hrs by MTT assay; type: functional, cell-based
MDA-MB-231 [3] = experiment: Induction of cell cycle arrest in human MDA-MB-231 cells assessed as reduction in accumulation of cells at S phase at 10 to 100 nM incubated for 24 hrs by PI staining based flow cytometric analysis; type: functional
MDA-MB-231 [4] = experiment: Induction of apoptosis in human MDA-MB-231 cells assessed as activation of PARP cleavage at 50 to 100 nM incubated for 48 hrs by Western blot analysis; type: functional, cell-based
HT-29 = experiment: cells; details: Homo sapiens, HT-29, 72 h
Description: Antiproliferative activity against human HT-29 cells assessed as inhibition of cell proliferation incubated for 72 hrs by MTT assay

[5] = Cytotoxicity against human astrocytes assessed as reduction in cell viability incubated for 72 hrs by MTT assay; type: cell-based, Astrocyte
MDA-MB-231 [6] = experiment: Induction of apoptosis in human MDA-MB-231 cells at 50 nM incubated for 24 to 48 hrs by annexin V-FITC/propidium iodide staining-based flow cytometry analysis; type: functional, cell-based
MDA-MB-231 [7] = experiment: Induction of apoptosis in human MDA-MB-231 cells assessed as reduction in Mcl1 protein expression at 50 nM incubated for 24 hrs by Western blot analysis; type: functional, cell-based
[8] = Cytotoxicity against human quiescent PBL assessed as reduction in cell viability incubated for 72 hrs by MTT assay; type: cell-based
MCF7 = experiment: cells; details: Homo sapiens, MCF7, 72 h
Description: Antiproliferative activity against human MCF7 cells assessed as inhibition of cell proliferation incubated for 72 hrs by MTT assay

E0771 [9] = experiment: Antitumour activity against mouse E0771 cells allografted in C57BL/6 mouse assessed as reduction in tumor mass at 5.0 to 15 mg/kg, ip administrated for every other day by caliper method; type: functional, organism-based
[10] = Antiproliferative activity against human CEM/VBL100 cells overexpressing P-gp assessed as inhibition of cell growth incubated for 72 hrs by MTT assay; type: functional; details: CEM/VBL100, 72 h
MDA-MB-231 [11] = experiment: Induction of cell cycle arrest in human MDA-MB-231 cells assessed as increase in p21 protein expression level at 50 to 100 nM incubated for 24 to 48 hrs by western blot analysis; type: functional, cell-based
Tubulin = Tubulin (Bos taurus, UniProt Q6B856+Q862L2+Q862F3); experiment: Inhibition of bovine brain tubulin assembly using GTP as substrate incubated for 20 mins by spectrophotometric method
E0771 [12] = experiment: Antitumour activity against mouse E0771 cells allografted in ip dosed C57BL/6 mouse assessed as reduction in tumor burden administrated every other day by caliper method; type: functional, organism-based
HL-60 = experiment: Antiproliferative activity against human HL60 cells assessed as inhibition of cell proliferation incubated for 72 hrs by MTT assay; type: functional, cell-based; details: HL-60, 72 h
MDA-MB-231 [13] = experiment: Induction of ROS generation in human MDA-MB-231 cells at 50 to 100 nM incubated for 24 to 48 hrs by H2-DCFDA staining based flow cytometric method; type: functional, cell-based
MDA-MB-231 [14] = experiment: Induction of cell cycle arrest in human MDA-MB-231 cells assessed as reduction in cdc2 dephosphorylation level at 50 to 100 nM incubated for 24 to 48 hrs by western blot analysis
MDA-MB-231 [15] = experiment: Induction of cell cycle arrest in human MDA-MB-231 cells assessed as effect on cyclin B protein expression at 50 to 100 nM incubated for 24 to 48 hrs by western blot analysis; type: functional, cell-based
Tubulin (Bos taurus) [16] = target: T1, Tubulin (Bos taurus) (UniProt Q6B856+Q862L2+Q862F3); experiment: Displacement of [3H]-colchicine from bovine brain tubulin at 0.5 uM incubated for 1 hr by relative to control
[17] = Toxicity in C57BL/6 mouse allografted with mouse E0771 cells assessed as change in body weight at 15 mg/kg, ip administered every other day; type: organism-based; details: in vivo
MDA-MB-231 [18] = experiment: Induction of cell cycle arrest in human MDA-MB-231 cells assessed as reduction in accumulation of cells at G1 phase at 10 to 100 nM incubated for 24 hrs by PI staining based flow cytometric analysis; type: functional
Tubulin (Bos taurus) [19] = target: T1, Tubulin (Bos taurus); experiment: Displacement of [3H]-colchicine from bovine brain tubulin at 5 uM incubated for 1 hr by relative to control
MDA-MB-231 [20] = experiment: Induction of cell cycle arrest in human MDA-MB-231 cells assessed as increase in accumulation of cells at G2/M phase at 10 nM incubated for 24 hrs by PI staining based flow cytometric analysis relative to control; type: functional
HeLa = experiment: cells; details: Homo sapiens, 72 h
Description: Antiproliferative activity against human HeLa cells assessed as inhibition of cell proliferation incubated for 72 hrs by MTT assay

MDA-MB-231 [21] = experiment: Antiproliferative activity against human MDA-MB-231 cells assessed as inhibition of cell proliferation incubated for 72 hrs by MTT assay; type: functional, cell-based; details: MDA-MB-231, 72 h
MDA-MB-231 [22] = experiment: Induction of mitochondrial membrane depolarization in human MDA-MB-231 cells at 50 to 100 nM incubated for 24 to 48 hrs by JC1 staining based flow cytometric method; type: functional, cell-based
CCRF-CEM = experiment: Antiproliferative activity against human CEM cells assessed as inhibition of cell growth incubated for 72 hrs by MTT assay; type: functional
MDA-MB-231 [23] = experiment: Induction of cell cycle arrest in human MDA-MB-231 cells assessed as reduction in cdc25c protein expression at 50 nM incubated for 24 to 48 hrs by western blot analysis; type: functional, cell-based
[24] = Cytotoxicity against PHA-stimulated human PBL assessed as reduction in cell viability incubated for 72 hrs by MTT assay; type: cell-based
MDA-MB-231 [25] = experiment: Induction of apoptosis in human MDA-MB-231 cells assessed as reduction in XIAP protein expression at 50 to 100 nM incubated for 24 to 48 hrs by Western blot analysis; type: functional, cell-based

IC50 (HT-29): 0.06 nM
IC50 (MCF7): 0.21 nM
IC50 (Tubulin): 350 nM
IC50 (HL-60): 0.25 nM
inhibition (Tubulin (Bos taurus) [16]): 90%
inhibition (Tubulin (Bos taurus) [19]): 96%
IC50 (HeLa): 0.07 nM
IC50 (MDA-MB-231 [21]): 0.7 nM
GI50 (CCRF-CEM): 0.35 nM
Structure (SMILES): CCOc1ccc(-c2n[nH]cc2-c2cc(OC)c(OC)c(OC)c2)cc1
inhibition (MDA-MB-231 [1]): Active
inhibition (E0771 [2]): Active
IC50 (SEM cells): 0.06 nM
Activity (MDA-MB-231 [3]): Active
Activity (MDA-MB-231 [4]): Active
GI50 at 72 h [5]: > 10000 nM
Activity (MDA-MB-231 [6]): Active
Activity (MDA-MB-231 [7]): Active
GI50 at 72 h [8]: > 10000 nM
inhibition (E0771 [9]): Active
GI50 [10]: 0.52 nM
Activity (MDA-MB-231 [11]): Active
inhibition (E0771 [12]): Dose-dependent effect
Activity (MDA-MB-231 [13]): Active
Activity (MDA-MB-231 [14]): Active
Activity (MDA-MB-231 [15]): inactive
Activity [17]: Non-Toxic
Activity (MDA-MB-231 [18]): Active
Activity (MDA-MB-231 [20]): 60%
Activity (MDA-MB-231 [22]): Active
Activity (MDA-MB-231 [23]): Active
GI50 at 72 h [24]: > 10000 nM
Activity (MDA-MB-231 [25]): Active
